Results from US20130039930A1, “BIOMARKER FOR SENSITIVITY TO THERAPY WITH A NOTCH INHIBITOR” (priority 2011, published 2013).

Columns and labels:
[1] = tested on: cleaved/activated Notch intracellular domain (NICD); experiment: NICD staining in Dll4-Fc- or DAPT-treated HDMECs (LECs and BECs); format: cell-based, human; conditions: 10 μg/mL, 24 hours
Method: FIG. 1. Expression and function of Dll4-Fc. (A) Map of the AAV9-Dll4-Fc vector. (B) Structure of the Dll4-Fc as a dimeric fusion protein of the ECD of mouse Dll4 and Fc region of human immunoglobulin (hFc). (C) Dll4-Fc in the supernatants of AAV9-transfected 293T cells was analyzed by metabolic labeling, immunoprecipitation with Protein A Sepharose and autoradiography after collecting with protein Sepharose from the supernatant of the virus-infected cells. (D) Human dermal microvascular endothelial cells (HDMECs) on glass coverslips stained with Dll4-Fc (red) on ice. After fixation with paraformaldehyde (PFA) and permeabilzation, the cells were stained for Prox-1 (Green) and Hoechst (Blue). Human immunoglobulin G1 (hIgG) was used as a negative control (Red). Note Dll4-Fc in both the Prox-1-positive lymphatic vascular endothelial cells (LECs) and Prox-1-negative cells. (E) Effect of Dll4-Fc on Notch downstream gene expression. HDMECs were treated with 10 μg/mL Dll4-Fc or 10 μg/mL DAPT for 24 hours, and the expression of Hes-1, Hey-2 and NRARP were quantified by qPCR and normalized for the expression of β-actin. The experiment was repeated 4 times. (F) The cells used in (E) were stained for NICD lymphatic vascular endothelial cells (LECs). Prox-1-positive LECs are indicated by arrowheads. (G) Quantification of NICD fluorescence intensity. **:p<0.01. *: p<0.05. […]

[2] = tested on: metastatic colorectal cancer; conditions: cited from earlier work
BECs on LECs islands = experiment: Sprout-like structures in 2D culture of LECs and BECs; format: cell-based, human; conditions: 1:1 LECs and BECs, 48 hours, 200 ng/ml VEGF-C with or without 10 μg/ml Dll4-Fc
Method: 1:1 Mixtures of BECs and LECs were grown on cover slips for 48 hours without VEGF-C to allow them to make LECs islands surrounded by BECs. The cells were then incubated for a further 48 hours with 200 ng/ml VEGF-C (produced by Dr Michael Jeltsch, University of Helsinki) with or without 10 μg/ml recombinant human Dll4-Fc protein (R&D Systems). After fixation with 1% PFA, the samples were immunostained for PECAM-1, a blood vascular endothelial marker, and podoplanin, a lymphatic endothelial marker, to identify BECs and LECs. The number of sprout-like projections of BECs on LECs islands was then counted under a fluorescence microscope.

[3] = tested on: VEGF-C-induced BaF3/VEGFR-3 cell proliferation; experiment: BaF3/VEGFR-3 assay; format: cell-based, mouse; conditions: supernatant from SK-VEGFR-3(D1-3)-Fc cells
Method: The BaF3/VEGFR-3 cells are derived from the interleukin-3 (IL-3) dependent mouse pro-B cell line, BaF3 (Bernardi et al., 1987). The cells express a chimeric receptor consisting of the ECD of human VEGFR-3 fused in-frame to the transmembrane and intracellular domain of mouse erythropoietin receptor (Achen et al., 2000). In IL-3 deficient cell media, the cells can be rescued by the addition of VEGF-C. The serial dilutions of supernatants (50 μl each), as well as positive and negative controls were applied in the wells of 96-well plates in quadruplicate. Subsequently, 20,000 BaF3/VEGFR-3 cells in 50 μl were added and the cells incubated at 37° C. for 48 hours. MTT substrate was added and the cells incubated at 37° C. for 2 hours. Lysis buffer (10% SDS, 10 mM HCl) was added and the plates incubated at 37° C. overnight for colour development. Quantification was done by absorbance at 540 nm.

SK-MeI-103 tumors = experiment: SK-MeI-103 tumor xenograft growth (control or VEGFR-3(D1-3)-Fc expressing); format: in vivo, mouse; conditions: SK-MeI-103, AAV9-HSA treated mice
Method: (§1) FIG. 7. Neutralization of VEGF-C/D attenuates the inhibition by Dll4-Fc. (A) The mice were injected by AAV9-Dll4-Fc or AAV9-HSA, followed by subcutaneous implantation of 5×10^6 VEGFR-3(D1-3)-Fc expressing or control retrovirus-transfected SK-MeI-103 cells. *: p<0.01, **: p<0.05. (B) Endomucin staining of the tumors. (C) Quantification of endomucin positive area. […] Scale bar 100 μm.
Six- to eight-week old female nu/nu BALB/c mice were purchased from Harlan Laboratories (Venray, The Netherlands). The National Board for Animal Experiments at the Provincial State Office of Southern Finland approved all the experiments, which were performed in accordance with Finnish legislation regarding the humane care and use of laboratory animals. […] Once the tumors became visible during the first few days, the size of the tumor was measured by a digital caliper every second day. The tumor volume was calculated using the formula: (length)×(width)×(depth)×0.52.
The SK-Mel-103 cells were transfected by an empty retrovirus (control) or by a retrovirus encoding VEGFR-3(D1-3)-Fc and then subcutaneously inoculated into nu/nu mice treated with the AAV9-HSA or the AAV9-Dll4-Fc as described above. […] This difference was statistically significant when measured 10, 12 and 14 days after tumor inoculation. […]

[4] = tested on: SK-MeI-103 tumor blood vessels; experiment: Endomucin and VEGFR-3 staining of SK-MeI-103 tumors; format: in vivo, mouse; conditions: SK-MeI-103 tumors expressing the VEGF-C/D trap
Description: FIG. 6. Dll4-Fc suppresses growth of tumors expressing high levels of endogenous VEGF-C. (A) VEGF-C mRNA levels in the indicated tumor cell lines analyzed by qRT-PCR. (B) Effects of Dll4-Fc on the proliferation LNM35 and SK-MeI-103 cells in culture. […] (C) The effect of Dll4-Fc on the growth of LNM35 and SK-MeI-103 tumors. (D) Endomucin staining of LNM35 and SK-MeI-103 tumors. More sprouts were associated with Dll4-Fc treatment (arrows). (E) Quantification of endomucin positive areas in LNM35 and SK-MeI-103 tumors from (D). **:p<0.01. Scale bar 50 μm.
as §1
FIG. 9. Dll4-Fc induced hypersprouting and VEGFR-3 expression in tumors. (A) High magnification fluorescent imaging of blood vessels in the SW480 tumors. Endomucin staining. […] (C) Quantification of VEGFR-3 staining intensity in the blood vessels. **: p<0.01. […]
The immunofluorescent images were captured with a Zeiss digital Axiocam camera connected to a Zeiss AxioPlan 2 microscope. […] The image quantification was carried out using ImageJ software (NIH, Bethesda, Md.).

[5] = newly diagnosed, Mayo Clinic or Roswell Park regimen
[6] = subjects progressed following 5-FU therapy

## C[C@H](NC(=O)Cc1cc(F)cc(F)c1)C(=O)N[C@H](C(=O)OC(C)(C)C)c1ccccc1 [DAPT, N—[N-(3,5-difluorophenacetyl)-1-alanyl]-S-phenyl-glycine t-butyl ester]
[1]
  intensity of NICD: decreased in both LECs and BECs

## 5-FU/leucovorin
[2]; [5]
  median survival: 12-14 months
  median time to disease progression: 4-5 months

## CCc1c2c(nc3ccc(OC(=O)N4CCC(N5CCCCC5)CC4)cc13)-c1cc3c(c(=O)n1C2)COC(=O)[C@]3(O)CC [irinotecan]
[2]; [6]
  prolongation of survival versus best supportive care: 2.8 month
  prolongation of survival versus infusional 5-FU: 2.2 month

B1: VEGF-C: Vascular endothelial growth factor-C protein added to endothelial cell cultures (protein)
chain: AHYNTEILKSIDNEWRKTQCMPREVCIDVGKEFGVATNTFFKPPCVSVYRCGGCCNSEGLQCMNTSTSYLSKTLFEITVPLSQGPKPVTISFANHTSCRCMSKLDVYRQVHSIIRR
BECs on LECs islands
  frequency of sprout-like structures of BECs over LECs islands: tended to increase the sprout-like structure, but the difference was not statistically significant

B2: VEGFR-3(D1-3)-Fc: fusion protein of the immunoglobulin-like domains 1-3 of the extracellular part of human VEGFR-3 and the Fc part of human immunoglobulin G1 (protein)
chain: YSMTPPTLNITEESHVIDTGDSLSISCRGQHPLEWAWPGAQEAPATGDKDSEDTGVVRDCEGTDARPYCKVLLLHEVHANDTGSYVCYYKYIKARIEGTTAASSYVFVRDFEQPFINKPDTLLVNRKDAMWVPCLVSIPGLNVTLRSQSSVLWPDGQEVVWDDRRGMLVSTPLLHDALYLQCETTWGDQDFLSNPFLVHITGNELYDIQLLPRKSLELLVGEKLVLNCTVWAEFNSGVTFDWDYPGKQAERGKWVPERRSQQTHTELSSILTIHNVSQHDLGSYVCKANNGIQRFRESTEVIVHE
modifications: left off: a dimerising Fc or GST
notes: fusion protein of the immunoglobulin-like domains 1-3 of the extracellular part of human VEGFR-3 and the Fc part of human immunoglobulin G1
[3]
  BaF3/VEGFR-3 cell proliferation induced by VEGF-C: suppresses
SK-MeI-103 tumors
  growth rates of VEGFR-3(D1-3)-Fc versus empty retrovirus tumors: No difference in growth rates
[4]
  endothelial proliferation / vessel density in tumors: downregulated endothelial proliferation
